Assay: Displacement of [3H]-quipazine from 5-HT3 receptor in mouse/rat NG108-15 cells
Assay type: cell-based

O=C1c2cccc3c2[C@H](CCC3)CN1[C@@H]1CN2CCC1CC2 [PALONOSETRON]
pKi: 10.5
